In ChEMBL document CHEMBL6134865, “Rational Design of Methylene Blue-Raloxifene Conjugates for Efficient Breast Tumor Elimination Triggered by ERα Degradation” (J Med Chem, 2025):
The source made the active and inactive calls. The calls are words filed in the database; no cut-off is given here.

What was measured:
MCF7 [1] = test: Induction of ROS generation in human MCF7 cells assessed as cell percentage with elevated ROS incubated for 6 hrs followed by irradiation with 660 nm 0.4 W/cm2 light for 5 min by DCFH-DA probe based flow cytometric analysis; type: functional; details: dose 0.1-5 µM, time 365.0 min
[2] = Drug uptake in human MCF7 cell nucleus assessed as increase in red fluorescence at 1 uM incubated for 6 hrs by fluorescence imaging analysis; type: ADME, subcellular; details: mcf7, 6 h
[3] = Toxicity in female BALB/c mouse xenografted with human MCF7 cells assessed as effect on kidney histology at 5 mg/kg, iv measured after 14 days by H and E staining based analysis; type: organism-based; details: in vivo, 336 h, time 14 day
MCF7 [4] = test: Antitumor activity against human MCF7 cells xenografted in female BALB/c mouse model assessed as damage in tumor tissue at 5 mg/kg, iv measured after 14 days with 660 nm 0.4 W/cm2 light irradiation for 5 mins at 4 hrs of incubation time by H and E staining based analysis; type: functional, organism-based; details: time 14.0 day
[5] = Toxicity in female BALB/c mouse xenografted with human MCF7 cells assessed as change in AST level at 5 mg/kg, iv measured after 14 days; type: organism-based; details: in vivo, 336 h, time 14 day
in vivo [6] = details: Sprague-Dawley, rat, iv, 5 mg/kg
Description: Cmax in Sprague-Dawley rat at 5 mg/kg, iv measured after 0.5 to 168 hrs by LC-MS analysis

MCF7 [7] = test: Antitumor activity against human MCF7 cells xenografted in female BALB/c mouse model assessed as tumor regression at 5 mg/kg, iv measured after 14 days with 660 nm 0.4 W/cm2 light irradiation for 5 mins at 4 hrs of incubation time (reference value: 122.9 mm3); type: functional; details: time 14 day
[8] = Toxicity in female BALB/c mouse xenografted with human MCF7 cells assessed as change in AST level at 5 mg/kg, iv measured after 14 days with 660 nm 0.4 W/cm2 light irradiation for 5 mins at 4 hrs of incubation time; type: organism-based; details: in vivo, 336 h, time 14 day
MCF7 [9] = test: cells; details: Homo sapiens, MCF7, light or radiation study
Description: Antiproliferative activity against human MCF7 cells assessed as inhibition of cell proliferation incubated for 48 hrs with 660 nm 0.4 W/cm2 light irradiation for 1 min at 6th hr of incubation time by MTT assay

[10] = Photothermal effect of compound in water assessed as increase in temperature of solution at 1 uM incubated for 5 mins in presence of presence of 660 nm 0.2 to 1.5 W/cm2 light; type: functional
[11] = Induction of ROS generation in water assessed as decrease in ABDA absorption peak at 5 uM irradiated with 660 nm 0.4 W/cm2 light up to 5 mins by ABDA probe based UV-vis absorption spectra analysis; type: functional
MCF7 [12] = test: Antitumor activity against human MCF7 cells xenografted in female BALB/c mouse model assessed as reduction in tumor weight at 5 mg/kg, iv measured after 14 days with 660 nm 0.4 W/cm2 light irradiation for 5 mins at 4 hrs of incubation time; type: functional, organism-based; details: time 14.0 day
MCF7 [13] = test: Antitumor activity against human MCF7 cells xenografted in female BALB/c mouse model assessed as tumor growth inhibition at 5 mg/kg, iv measured after 14 days relative to control; type: functional; details: MCF7, 336 h, time 14 day, read-out: TGI
[14] = Toxicity in female BALB/c mouse xenografted with human MCF7 cells assessed as change in white blood cell level at 5 mg/kg, iv measured after 14 days; type: organism-based; details: in vivo, 336 h, time 14 day
[15] = Toxicity in female BALB/c mouse xenografted with human MCF7 cells assessed as change in creatinine level at 5 mg/kg, iv measured after 14 days; type: organism-based; details: in vivo, 336 h, time 14 day
[16] = Toxicity in female BALB/c mouse xenografted with human MCF7 cells assessed as change in lymphocytes level at 5 mg/kg, iv measured after 14 days; type: organism-based; details: in vivo, 336 h, time 14 day
MCF7 [17] = test: cells; details: Homo sapiens, MCF7, light or radiation study; remark: listed apart in the source
Description: Antiproliferative activity against human MCF7 cells assessed as inhibition of cell proliferation incubated for 48 hrs with 660 nm 0.4 W/cm2 light irradiation for 3 min at 6th hr of incubation time by MTT assay

[18] = Drug uptake in female BALB/c mouse liver xenografted with human MCF7 cells at 5 mg/kg, iv measured after 4 hrs by fluorescence imaging analysis; type: ADME, organism-based; details: in vivo
MCF7 [19] = test: Induction of ROS generation in human MCF7 cells assessed as cell percentage with elevated ROS at 1 uM incubated for 6 hrs followed by irradiation with 660 nm 0.4 W/cm2 light for 1 min by DCFH-DA probe based flow cytometric analysis (reference value: 0.2 %); type: functional; details: time 361 min, 6.017 h
[20] = Toxicity in female BALB/c mouse xenografted with human MCF7 cells assessed as change in red blood cell level at 5 mg/kg, iv measured after 14 days; type: organism-based; details: in vivo, 336 h, time 14 day
MCF7 [21] = test: cells; details: Homo sapiens, MCF7, light or radiation study; remark: listed apart in the source
Description: Antiproliferative activity against human MCF7 cells assessed as inhibition of cell proliferation incubated for 48 hrs with 660 nm 0.4 W/cm2 light irradiation for 5 min at 6th hr of incubation time by MTT assay

in vivo [22] = details: Sprague-Dawley, rat, po, 15 mg/kg
Description: AUC (0 to infinity) in Sprague-Dawley rat at 15 mg/kg, po administered via gavage and measured after 0.5 to 168 hrs by LC-MS analysis

in vivo [23] = details: Sprague-Dawley, rat, iv, 5 mg/kg; remark: listed apart in the source
Description: AUC (0 to infinity) in Sprague-Dawley rat at 5 mg/kg, iv measured after 0.5 to 168 hrs by LC-MS analysis

[24] = Toxicity in female BALB/c mouse xenografted with human MCF7 cells assessed as effect on liver histology at 5 mg/kg, iv measured after 14 days by H and E staining based analysis; type: organism-based; details: in vivo, 336 h, time 14 day
[25] = Drug uptake in human MCF7 cell cytoplasm assessed as increase in red fluorescence at 1 uM incubated for 6 hrs by fluorescence imaging analysis; type: ADME, subcellular; details: mcf7, 6 h
MCF7 [26] = test: cells; details: Homo sapiens, MCF7, light or radiation study; remark: listed apart in the source
Description: Antiproliferative activity against human MCF7 cells assessed as inhibition of cell proliferation incubated for 48 hrs with 660 nm 0.4 W/cm2 light irradiation for 2 min at 6th hr of incubation time by MTT assay

[27] = Induction of ROS generation in water at 1 uM irradiated with 660 nm 0.4 W/cm2 light up to 180 sec by DCFH probe based fluorescence spectra analysis; type: functional

CCN(CC)c1ccc2nc3c4ccccc4/c(=N\CCCCCCC(=O)NCCOc4ccc(C(=O)c5c(-c6ccc(O)cc6)sc6cc(O)ccc56)cc4)cc-3sc2c1
Activity (MCF7 [1]): Dose-dependent-effect
Drug uptake [2]: Active
Activity [3]: Non-toxic
Activity (MCF7 [4]): Active
Activity [5]: Non-toxic
Cmax (in vivo [6]): 0.0302 µg/mL
Activity (MCF7 [7]): 45.3 mm3
Activity [8]: Non-toxic
IC50 (MCF7 [9]): 0.55 µM
Activity [10]: Active
Activity [11]: Active
Activity (MCF7 [12]): Active; Significant Performance Than Faslodex Observed
inhibition in vivo at 5 mg/kg (MCF7 [13]): 77.5%
Activity [14]: Non-toxic
Activity [15]: Non-toxic
Activity [16]: Non-toxic
IC50 (MCF7 [17]): 0.2 µM
Drug uptake [18]: Active
Activity (MCF7 [19]): 5.5%
Activity [20]: Non-toxic
IC50 (MCF7 [21]): 0.13 µM
AUC(0-inf) (in vivo [22]): 0.357 µg·h/mL
AUC(0-inf) (in vivo [23]): 0.279 µg·h/mL
Activity [24]: Non-toxic
Drug uptake [25]: Active
IC50 (MCF7 [26]): 0.29 µM
Activity [27]: Active
